The target of experiment [1] is T1, Protein farnesyltransferase (Homo sapiens, UniProt P49354+P49356). Briefly: In vitro FPT potency by measuring the ability to inhibit the transfer of [3H]farnesyl from farnesyl pyrophosphate to H-Ras-CLVS. In kind it is protein-complex assay.
Experiment [2] has as its target T1, Protein farnesyltransferase. Briefly: In vitro inhibition of Ras processing in COS cells. In kind it is functional, cell-based.
Experiment [3] has the same target. Briefly: In vitro inhibition of Ras processing by COS cells at 20 uM. Format: functional, cell-based.
Experiment [4] has the same target. Briefly: In vitro inhibition of [H]-farnesyl incorporation into H-Ras-CLVS by farnesyl transferase at 1.3 uM. In kind it is protein-complex assay.
The target is the same in experiment [5]. Nature of the experiment: In vitro inhibition of [3H]farnesyl incorporation into H-Ras-CLVS by farnesyl transferase at 1.2 uM. Format: protein-complex assay.
Experiment [6] shares this target. Nature of the experiment: In vitro inhibition of [3H]farnesyl incorporation into H-Ras-CLVS by farnesyl transferase at 0.042 uM. Format: protein-complex assay.

Take `O=C(Cc1cc[n+]([O-])cc1)N1CCN(C2c3ccc(Cl)cc3S(=O)(=O)Cc3cccnc32)CC1` (stereo not given): in experiment [1], inhibition was half-maximal at 3400 nM (IC50).

`CN1CCC(CC(=O)N2CCC(=C3c4ccc(Cl)cc4SCc4cccnc43)CC2)CC1`: inhibition in experiment [1] was half-maximal at 1790 nM (IC50).

Consider `O=C(Cc1cc[n+]([O-])cc1)N1CCC(=C2c3ccc(Cl)cc3SCc3cccnc32)CC1`, for which the IC50 (commonly the point on the concentration scale where inhibition reaches its midpoint) in experiment [2] was found to be 10000 nM; in experiment [1], 520 nM.

In experiment [1], `O=C(Cc1ccncc1)N1CCC(=C2c3ccc(Cl)cc3S(=O)(=O)Cc3cccnc32)CC1` displayed an IC50 of 560 nM.

Consider `CN1CCC(CC(=O)N2CCN(C3c4ccc(Cl)cc4SCc4cccnc43)CC2)CC1` (stereo not given), for which, in experiment [1], the IC50 is 2100 nM.

Take `O=C(CC1CCNCC1)N1CCC(=C2c3ccc(Cl)cc3SCc3cccnc32)CC1`: the IC50 in experiment [1] came out at 590 nM.

For the compound `N#CN/C(=N\Cc1ccc[n+]([O-])c1)N1CCC(=C2c3ccc(Cl)cc3SCc3cccnc32)CC1`, the inhibition (in general, the percentage by which the read-out fell short of the control) in experiment [3] was found to be 26%. The 50% inhibitory concentration (IC50) in experiment [1] was 38 nM.

For `O=C(Cc1cc[n+]([O-])cc1)N1CCN(C2c3ccc(Cl)cc3SCc3cccnc32)CC1` (stereo not given), the IC50 in experiment [2] was 10000 nM; in experiment [1], 79 nM.

As for `CN1Cc2cccnc2C(N2CCN(C(=O)Cc3cc[n+]([O-])cc3)CC2)c2ccc(Cl)cc21` (stereo not given), the concentration for half-maximal inhibition (IC50) in experiment [2] turned out to be 20000 nM; in experiment [1], 2700 nM.

In the case of `O=C(Cc1ccncc1)N1CCN(C2c3ccc(Cl)cc3SCc3cccnc32)CC1` (stereo in doubt; 40), the IC50 in experiment [1] was found to be 1000 nM.

In experiment [1], `N#CN/C(=N\Cc1ccc[n+]([O-])c1)N1CCN(C2c3ccc(Cl)cc3SCc3cccnc32)CC1` (stereo not given) had an IC50 of 140 nM.

In experiment [1], `N#CN/C(=N\Cc1ccncc1)N1CCN(C2c3ccc(Cl)cc3SCc3cccnc32)CC1` (stereo not given) came in with an IC50 of 61 nM.

For `CN1Cc2cccnc2C(N2CCN(C(=O)CC3CCNCC3)CC2)c2ccc(Cl)cc21` (stereo not given), in experiment [4], the inhibition amounted to 10%.

On to `O=C(Cc1cc[n+]([O-])cc1)N1CCC(=C2c3ccc(Cl)cc3S(=O)(=O)Cc3cccnc32)CC1`, for which the inhibition in experiment [5] was 30%.

Consider `CN1Cc2cccnc2C(N2CCN(C(=O)Cc3ccncc3)CC2)c2ccc(Cl)cc21` (stereo not given), for which the inhibition in experiment [3] is 0%. The half-inhibitory concentration (IC50) in experiment [1] is 840 nM.

On to `O=C(Cc1ccncc1)N1CCN(C2c3ccc(Cl)cc3SCc3cccnc32)CC1` (stereo in doubt; 36), for which half-maximal inhibition in experiment [1] (IC50) was put at 32 nM.

Take `NC(=O)N1CCC(CC(=O)N2CCN(C3c4ccc(Cl)cc4SCc4cccnc43)CC2)CC1` (stereo not given): in experiment [1], the IC50 came out at 1120 nM.

Take `O=C(CC1CCNCC1)N1CCC(=C2c3ccc(Cl)cc3S(=O)(=O)Cc3cccnc32)CC1`: in experiment [5], the inhibition amounted to 28%.

Compound `CN1Cc2cccnc2C(N2CCN(/C(=N/Cc3ccncc3)NC#N)CC2)c2ccc(Cl)cc21` (stereo not given) displayed an inhibition in experiment [3] of 10%. This compound also came in with a 50% inhibitory concentration (IC50) in experiment [1] of 140 nM.

As for `O=C(Cc1cc[n+]([O-])cc1)N1CCC(=C2c3ccc(Cl)cc3OCc3cccnc32)CC1`, the inhibition in experiment [3] turned out to be 41%. This compound had an IC50 in experiment [1] of 1520 nM.

For the compound `O=C(CSc1cc[n+]([O-])cc1)N1CCC(=C2c3ccc(Cl)cc3SCc3cccnc32)CC1`, the IC50 in experiment [2] came to 5000 nM; in experiment [1], 620 nM.

As to `O=C(Cc1ccncc1)N1CCC(=C2c3ccc(Cl)cc3SCc3cccnc32)CC1`, the concentration for half-maximal inhibition (IC50) in experiment [2] came to 4200 nM; in experiment [1] it was 190 nM.

Turning to `N#CN/C(=N\Cc1ccncc1)N1CCC(=C2c3ccc(Cl)cc3OCc3cccnc32)CC1`, the inhibition in experiment [6] worked out at 25%.

For `O=C(Cc1cc[n+]([O-])cc1)N1CCC(=C2c3ccc(Cl)cc3OCc3cc(Br)cnc32)CC1`, the IC50 in experiment [1] was determined as 110 nM.

Consider `NC(=O)N1CCC(CC(=O)N2CCC(=C3c4ccc(Cl)cc4SCc4cccnc43)CC2)CC1`, for which the IC50 was determined as 3800 nM in experiment [2] and 920 nM in experiment [1].

Regarding `N#CN=C(NCc1ccncc1)N1CCC(=C2c3ccc(Cl)cc3SCc3cccnc32)CC1`, the results for the IC50 in experiment [2] and in experiment [1] were 1700 nM and 43 nM, respectively.

Turning to `NC(=O)N1CCC(CC(=O)N2CCC(=C3c4ccc(Cl)cc4S(=O)(=O)Cc4cccnc43)CC2)CC1`, the inhibition in experiment [5] is 35%.

`O=C(Cc1ccncc1)N1CCN(C2c3ccc(Cl)cc3S(=O)(=O)Cc3cccnc32)CC1` (stereo not given) returned an IC50 in experiment [1] of 1000 nM.

In turn, `O=C(CC1CCNCC1)N1CCN(C2c3ccc(Cl)cc3SCc3cccnc32)CC1` (stereo not given) registered an IC50 in experiment [1] of 1100 nM.

The values above are taken from ChEMBL document CHEMBL1130965, “Inhibitors of farnesyl protein transferase. Synthesis and biological activity of amide and cyanoguanidine derivatives containing a 5,11-dihydro[1]benzthiepin, benzoxepin, and benzazepin [4,3-b]pyridine ring system” (Bioorg Med Chem Lett, 1998).
